Molecules are shown by their SMILES. pIC50: −log10 of the molar value. Calls of active or inactive are those of the source. The calls are words filed in the database; no cut-off is given here. Where only a bound is given, the exact number is not on record here.

What is called pIC50 is the negative decadic logarithm of the IC50, by convention in mol/L. Broadly, the logD is the decadic logarithm of the distribution of all forms, ionised or not, between an organic phase and buffer at a given pH. Read a high logD as a more lipophilic compound. A word on the inhibition: it is the relative decrease from the control value, in per cent.

The first data set concerns the target T1, Amine oxidase [flavin-containing] B (Homo sapiens, UniProt P27338).
T1 sequence (P27338 whole entry): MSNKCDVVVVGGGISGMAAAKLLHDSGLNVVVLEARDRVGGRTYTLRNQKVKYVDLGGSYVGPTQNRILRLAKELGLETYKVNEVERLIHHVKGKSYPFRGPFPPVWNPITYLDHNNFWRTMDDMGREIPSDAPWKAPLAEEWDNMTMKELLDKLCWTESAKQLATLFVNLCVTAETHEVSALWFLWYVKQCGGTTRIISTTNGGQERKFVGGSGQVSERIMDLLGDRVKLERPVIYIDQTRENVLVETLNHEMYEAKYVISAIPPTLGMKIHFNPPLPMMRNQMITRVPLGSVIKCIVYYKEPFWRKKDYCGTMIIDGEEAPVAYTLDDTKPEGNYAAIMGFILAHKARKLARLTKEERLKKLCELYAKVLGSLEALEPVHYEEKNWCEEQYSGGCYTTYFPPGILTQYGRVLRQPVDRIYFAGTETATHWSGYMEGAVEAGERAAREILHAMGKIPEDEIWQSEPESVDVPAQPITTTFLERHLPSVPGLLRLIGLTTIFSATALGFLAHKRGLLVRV
As to the kind of experiment: Inhibition of human MAO-B.
Conditions: not given
With `CC(=O)c1ccc(OCc2ccccc2)cc1O`, the negative logarithm of the IC50 (pIC50) was 8.15.

The next data set concerns the target T1, Amine oxidase [flavin-containing] B. As to the kind of experiment: Inhibition of human recombinant MAO-B using tyramine as substrate incubated for 20 mins by fluorometric assay.
Conditions: not given
Take `O=C1C(c2cc(-c3ccc(F)cc3)no2)=CS(=O)(=O)c2ccccc21`: the pIC50 was 6.83.
The same measure, in the same setting: under `O=c1c(-c2cc(-c3ccc(C(F)(F)F)cc3)no2)csc2ccccc12` stands 7.95.
As for `Cc1cccc(-c2cc(C3=CS(=O)(=O)c4ccccc4C3=O)on2)c1`, the pIC50 was 7.01.
In the case of `O=C1C(c2cc(-c3ccc(C(F)(F)F)cc3)no2)=CS(=O)(=O)c2ccccc21`, the negative logarithm of the IC50 (pIC50) was 7.50.
Consider `Cc1ccccc1-c1cc(C2=CS(=O)(=O)c3ccccc3C2=O)on1`, for which the negative logarithm of the IC50 (pIC50) is 6.86.
For the compound `Cc1cccc(-c2cc(-c3csc4ccccc4c3=O)on2)c1`, the negative-log IC50 (pIC50) was 6.28.
Still for that read-out and setting: for `COc1ccc(-c2cc(C3=CS(=O)(=O)c4ccccc4C3=O)on2)cc1` the value was 8.47.
For the compound `O=c1c(-c2cc(-c3cccc(C(F)(F)F)c3)no2)csc2ccccc12`, the negative-log IC50 (pIC50) was 7.45.
Regarding `COc1ccc(-c2cc(-c3csc4ccccc4c3=O)[nH]n2)cc1`, the pIC50 is 7.73.
Consider `O=C1C(c2cc(-c3ccccc3)no2)=CS(=O)(=O)c2ccccc21`, for which the negative-log IC50 (pIC50) is 6.05.
Same read-out and setting: for `O=C1C(c2cc(-c3ccccc3C(F)(F)F)no2)=CS(=O)(=O)c2ccccc21` the value was 8.64; for `Cc1ccc(-c2cc(-c3csc4ccccc4c3=O)on2)cc1`, 7.21.
`O=c1c(-c2cc(-c3ccccc3)no2)csc2ccccc12`: the pIC50 was 5.91.

The target of a further data set is T2, Amine oxidase [flavin-containing] A (Homo sapiens, UniProt P21397).
T2 sequence (P21397 whole entry): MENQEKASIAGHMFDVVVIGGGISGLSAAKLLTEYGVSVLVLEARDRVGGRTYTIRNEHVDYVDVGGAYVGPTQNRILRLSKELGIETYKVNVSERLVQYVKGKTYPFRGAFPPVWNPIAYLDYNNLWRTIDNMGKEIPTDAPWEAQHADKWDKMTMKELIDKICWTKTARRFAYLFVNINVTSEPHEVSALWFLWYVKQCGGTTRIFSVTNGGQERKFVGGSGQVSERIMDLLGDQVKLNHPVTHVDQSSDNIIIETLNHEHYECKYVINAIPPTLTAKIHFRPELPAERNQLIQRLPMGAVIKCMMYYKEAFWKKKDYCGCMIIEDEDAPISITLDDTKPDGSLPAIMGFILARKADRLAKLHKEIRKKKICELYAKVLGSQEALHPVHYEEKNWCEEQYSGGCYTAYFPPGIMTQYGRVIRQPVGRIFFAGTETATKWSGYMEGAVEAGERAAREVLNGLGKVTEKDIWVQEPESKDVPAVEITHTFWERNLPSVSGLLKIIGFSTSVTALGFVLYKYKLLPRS
As to the kind of experiment: Inhibition of human recombinant MAO-A using tyramine as substrate incubated for 20 mins by fluorometric assay.
Conditions: not given
In the case of `O=c1c(-c2cc(-c3ccc(C(F)(F)F)cc3)no2)csc2ccccc12`, the pIC50 is 4.07.
On to `COc1ccc(-c2cc(C3=CS(=O)(=O)c4ccccc4C3=O)on2)cc1`, for which the pIC50 is 4.19.
Still for that read-out and setting: for `O=c1c(-c2cc(-c3cccc(C(F)(F)F)c3)no2)csc2ccccc12` the value was 3.79.

The species named for a further data set is Homo sapiens. As to the kind of experiment: Selectivity index, ratio of IC50 for human recombinant MAO-A to IC50 for human recombinant MAO-B.
Conditions: not given
With `O=c1c(-c2cc(-c3ccc(C(F)(F)F)cc3)no2)csc2ccccc12`, the Ratio IC50 was found to be 7580.
As to `O=c1c(-c2cc(-c3cccc(C(F)(F)F)c3)no2)csc2ccccc12`, the Ratio IC50 was 4580.

Test system in a further data set: not listed separately
As to the kind of experiment: n-Octanol/water partition coefficient, logP of the compound at pH 7.4 by HPLC analysis. The class given is physicochemical.
Conditions: not given
`O=C1C(c2cc(-c3ccc(F)cc3)no2)=CS(=O)(=O)c2ccccc21` showed a pH-dependent lipophilicity (logD) of 2.43.
Regarding `O=c1c(-c2cc(-c3ccc(C(F)(F)F)cc3)no2)csc2ccccc12`, the logD turned out to be 2.55.
Still for that read-out and setting: under `Cc1cccc(-c2cc(C3=CS(=O)(=O)c4ccccc4C3=O)on2)c1` stands 3.23; under `O=C1C(c2cc(-c3ccc(C(F)(F)F)cc3)no2)=CS(=O)(=O)c2ccccc21`, 2.37.
The compound `Cc1ccccc1-c1cc(C2=CS(=O)(=O)c3ccccc3C2=O)on1` displayed a log distribution coefficient (logD) of 2.69.
On the same count and under the same terms, for `Cc1cccc(-c2cc(-c3csc4ccccc4c3=O)on2)c1` the value was 3.44; for `COc1ccc(-c2cc(C3=CS(=O)(=O)c4ccccc4C3=O)on2)cc1`, 2.62; for `O=c1c(-c2cc(-c3cccc(C(F)(F)F)c3)no2)csc2ccccc12`, 3.71.
On the same count and under the same terms, for `COc1ccc(-c2cc(-c3csc4ccccc4c3=O)[nH]n2)cc1` the value was 3.43; for `O=C1C(c2cc(-c3ccccc3)no2)=CS(=O)(=O)c2ccccc21`, 3.26; for `O=C1C(c2cc(-c3ccccc3C(F)(F)F)no2)=CS(=O)(=O)c2ccccc21`, 2.63.
The compound `Cc1ccc(-c2cc(-c3csc4ccccc4c3=O)on2)cc1` displayed a logD of 3.2.
Take `O=c1c(-c2cc(-c3ccccc3)no2)csc2ccccc12`: the logD was 3.72.

A further data set addresses T2, Amine oxidase [flavin-containing] A. As to the kind of experiment: Inhibition of human recombinant MAO-A using tyramine as substrate at 10 uM incubated for 20 mins by fluorometric assay relative to control.
Conditions: not given
`O=C1C(c2cc(-c3ccc(C(F)(F)F)cc3)no2)=CS(=O)(=O)c2ccccc21`: the inhibition at 10 µM stood at 2.6%.
`O=C1C(c2cc(-c3ccccc3C(F)(F)F)no2)=CS(=O)(=O)c2ccccc21`: the inhibition at 10 µM amounted to 3.8%.

For a further data set, the system named is MCF7. As to the kind of experiment: Antiproliferative activity against human MCF7 cells assessed as reduction in cell viability incubated for 24 hrs by MTT assay. The class given is functional, cell-based. To be noted: MCF7, 24 h.
Take `COc1ccc(-c2cc(C3=CS(=O)(=O)c4ccccc4C3=O)on2)cc1`: the pIC50 was 5.22.
For the compound `O=C1C(c2cc(-c3ccccc3C(F)(F)F)no2)=CS(=O)(=O)c2ccccc21`, the negative logarithm of the IC50 (pIC50) was 4.80.

A further data set concerns HCT-116. As to the kind of experiment: Antiproliferative activity against human HCT-116 cells assessed as reduction in cell viability incubated for 24 hrs by MTT assay. The class given is functional, cell-based. To be noted: HCT-116, 24 h. Background: Formazan colour is commonly taken as a measure of viable cells.
In the case of `COc1ccc(-c2cc(C3=CS(=O)(=O)c4ccccc4C3=O)on2)cc1`, the pIC50 is 4.11.
For `O=C1C(c2cc(-c3ccccc3C(F)(F)F)no2)=CS(=O)(=O)c2ccccc21`, the negative-log IC50 (pIC50) was 4.28.

The test system of the next data set is HepG2. As to the kind of experiment: Antiproliferative activity against human HepG2 cells assessed as reduction in cell viability incubated for 24 hrs by MTT assay. It counts as functional, cell-based. As to conditions: HepG2, 24 h.
Turning to `COc1ccc(-c2cc(C3=CS(=O)(=O)c4ccccc4C3=O)on2)cc1`, the negative-log IC50 (pIC50) was 4.20.
In the case of `O=C1C(c2cc(-c3ccccc3C(F)(F)F)no2)=CS(=O)(=O)c2ccccc21`, the pIC50 was 4.00.

The subject of the next data set is MGC-803. As to the kind of experiment: Antiproliferative activity against human MGC-803 cells assessed as reduction in cell viability incubated for 24 hrs by MTT assay. It counts as functional, cell-based. As to conditions: MGC-803, 24 h.
For `O=C1C(c2cc(-c3ccccc3C(F)(F)F)no2)=CS(=O)(=O)c2ccccc21`, the pIC50 is 4.42.

The subject of a further data set is SH-SY5Y. As to the kind of experiment: Cytotoxicity against differentiated human SH-SY5Y cells assessed as reduction in cell viability by measuring MTT reduction at 4 uM incubated for 24 hrs by MTT assay relative to control. It counts as toxicity, cell-based.
Conditions: not given
With `COc1ccc(-c2cc(C3=CS(=O)(=O)c4ccccc4C3=O)on2)cc1`, the Activity is reported as less than 90%.
Still for that read-out and setting: under `O=C1C(c2cc(-c3ccccc3C(F)(F)F)no2)=CS(=O)(=O)c2ccccc21` stands less than 90%.

Test system in a further data set: not listed separately
As to the kind of experiment: Cytotoxicity against differentiated human SH-SY5Y cells assessed as cell proliferation at 0.5 uM incubated for 24 hrs by MTT assay relative to control. The class given is toxicity, cell-based. To be noted: read-out: Activity.
Regarding `COc1ccc(-c2cc(C3=CS(=O)(=O)c4ccccc4C3=O)on2)cc1`, the viability at 24 h, 0.5 µM came to 105%.
Turning to `O=C1C(c2cc(-c3ccccc3C(F)(F)F)no2)=CS(=O)(=O)c2ccccc21`, the viability at 24 h, 0.5 µM stood at 108%.

In a further data set the test system is VSMC. As to the kind of experiment: Cytotoxicity against differentiated human VSMC cells assessed as reduction in cell viability at 0.5 to 4 uM incubated for 24 hrs by MTT assay. It counts as toxicity, cell-based. As to conditions: dose 0.5-4 µM.
On to `COc1ccc(-c2cc(C3=CS(=O)(=O)c4ccccc4C3=O)on2)cc1`, for which the Activity entry is listed as “Non-Toxic”.
Take `O=C1C(c2cc(-c3ccccc3C(F)(F)F)no2)=CS(=O)(=O)c2ccccc21`: the Activity entry is “Non-Toxic”.

The subject of a further data set is MGC-803. As to the kind of experiment: Antiproliferative activity against human MGC-803 cells assessed as reduction in cell viability at 0.5 to 128 uM incubated for 24 hrs by MTT assay. It counts as functional, cell-based. To be noted: dose 0.5-128 µM.
`COc1ccc(-c2cc(C3=CS(=O)(=O)c4ccccc4C3=O)on2)cc1`: the outcome was inactive.

Test system in a further data set: not listed separately
As to the kind of experiment: Cytotoxicity against differentiated human SH-SY5Y cells assessed as cell proliferation at 4 uM incubated for 24 hrs by MTT assay relative to control. As to conditions: read-out: Activity. It counts as toxicity, cell-based.
Consider `COc1ccc(-c2cc(C3=CS(=O)(=O)c4ccccc4C3=O)on2)cc1`, for which the viability at 24 h, 4 µM was 120%.
Consider `O=C1C(c2cc(-c3ccccc3C(F)(F)F)no2)=CS(=O)(=O)c2ccccc21`, for which the viability at 24 h, 4 µM stood at 119%.

Test system in a further data set: not listed separately
As to the kind of experiment: Selectivity index, ratio of IC50 for MAO-A (unknown origin) to IC50 for human recombinant MAO-B.
Conditions: not given
Regarding `CC(=O)c1ccc(OCc2ccccc2)cc1O`, the Ratio IC50 was 1190.

These data come from ChEMBL document CHEMBL5537125, “Discovery of C-3 isoxazole substituted thiochromone S,S-dioxide derivatives as potent and selective inhibitors for monoamine oxidase B (MAO-B)” (Eur J Med Chem, 2024).
